Source: US20170121683A1, “ARYL HYDROCARBON RECEPTOR DISRUPTION AND ENHANCEMENT” (priority 2015, published 2017)

Legend:
[1] = test system: hESC-derived non-adherent hematopoietic progenitor cells; assay: Cell cycle analysis (EdU/propidium iodide flow cytometry); type: cell-based, human; settings: Day 6+5, SR-1 or TCDD, n=3
Protocol: FIG. 10A. Non-adherent hematopoietic progenitor cells derived from hESCs were cultured in the presence of DMSO, SR-1, and TCDD until Day 6+5. Cell cycle phase was assessed using flow cytometry to determine the total percentage of G0/G1)(EdU^−PI^lo, S-phase (EdU^+PI^+), or G2/M (EdU^−PI^hi). Representative flow cytometry plots are shown. FIG. 10B. Quantification of cell cycle analysis, n=3, *p<0.05, **p<0.01, ***p<0.001 as assessed by two-way ANOVA+Tukey-Kramer multiple comparisons post-hoc test.
Spin EBs were differentiated into hemato-endothelial cells with non-adherent cells harvested on Day 6+5. Cells were cultured in a 24-well plate and harvested after 1 week for flow cytometry analysis. Cells were co-stained with anti-human CD34-PECy7 to monitor proliferation of HSPCs. For cell cycle analysis, Day 6+5 non-adherent cells derived from EBs were harvest and monitored for S-phase using the Click-iT EdU Alex Fluor 647 flow cytometry assay kit per manufacturer instructions. Prior to flow cytometry, cells were counterstained with 50 μg/mL propidium iodide supplemented with 100 μg/mL RNAse A (New England BioLabs, Ipswich, Mass.).

[2] = test system: hESC-derived hematopoietic cells; assay: cNK, NKP and ILC3 phenotyping by flow cytometry; type: cell-based, human
Description: FIG. 15A. Gating scheme for identifying cNK (CD94^−CD117^+), NK progenitor cells (NKP, CD94^+CD117^− and CD94^+CD117^−LFA1^+), and ILC (CD94^−CD117^+LFA1^−) phenotypes. FIG. 15B. Representative flow cytometry profile of non-adherent hematopoietic cells differentiated from hESCs in the presence of DMSO, SR-1, or TCDD at Day 11+28. FIG. 15C. cNK, NKP, and NKP/ILC subpopulations from Day 11+28 DMSO, SR-1, and TCDD differentiated hESCs assessed for CD56 and LFA (CD11a/CD18) surface antigen expression. Representative flow cytometry plots are shown, n=3. FIG. 15D. Total percentage of cNK, NKP, and NKP/ILCs present in the non-adherent fraction of differentiating hESCs in the presence of DMSO, SR-1, or TCDD at Day 11+28. n=3, error bars represent SEM, *p<0.05, **p<0.01, ***p<0.001 as compared to DMSO treated controls and assessed by two-way ANOVA+Tukey-Kramer multiple comparisons post-hoc test. FIG. 15E. CD94^−CD117^+ subpopulations were further quantified for expression of LFA^+ (NKP) and LFA^− (ILC) by flow cytometry. n=3, error bars represent SEM, *p<0.05, **p<0.01 as compared to DMSO treated controls and assessed by two-way ANOVA+Tukey-Kramer multiple comparisons post-hoc test.
Spin-EBs were generated as described above (see also Knorr et al. Stem Cells Dev. 2013; 22(13):1861-9; Ni et al. Embryonic Stem Cell Immunobiol. Methods Protoc. Methods Mol. Biol. 2013; 1029:33-41; Hermanson et al. Stem Cells. 2016; 34(1):93-101). Following 11 days of mesoderm conditioning (Day 11), spin-EBs were collected and analyzed by flow cytometry to assess hematopoietic progenitor cell potential (see flow cytometry methods for antibodies used) (FIG. 4A). Spin-EBs yielding >30% CD34^+CD45^+ cells were transferred onto 24-well plates coated with irradiated OP9-DL1 cells (as described in Martin et al. Blood. 2008; 112(7):2730-7; La Motte-Mohs et al. Blood. 2005; 105(4):1431-9) (now defined as Day 11+0). EBs and OP9-DL1 were co-cultured in NK differentiation media (NKDM) supplemented initially with SCF, IL-15, IL-7, Flt3-L (all R&D Systems), and IL-3 (PeproTech) for one week; DMSO, SR-1, or TCDD were also added at Day 11+0. Every week, a one-half media change with NKDM supplemented with SCF, IL-15, IL-7, Flt3-L, and drugs was performed. hESCs were differentiated for four additional weeks (Day 11+28) and non-adherent cells were harvested for analysis.
The following additional antibodies were used (all anti-human): LFA-1 (CD11a/CD18)-APC-R700 (BD Biosciences), CD31-APC (eBioscience), CD33-APC (BD Biosciences), CD34-PECy7 (BD Biosciences), CD34-APC (BD Biosciences), CD41a-APC (BD Biosciences), CD43-APC (BD Biosciences), CD45-APC (BD Biosciences), CD56-PECy7 (BD Biosciences), CD56-BV421 (BD Biosciences), CD94-PerCP-Cy5.5 (BD Biosciences), CD117-PECy7 (BD Biosciences), CD117-APC (eBiosciences), CD144-APC (eBioscience). Samples were analyzed on either an LSRFortessa or LSRII flow cytometer (BD Biosciences). Gating was set relative to isotype controls of identical fluorophores. Data from flow cytometry was analyzed using FlowJo software (Treestar, Ashland, Oreg.).
To assess the effects of AHR modification on NK cell and ILC specification, non-adherent hematopoietic cells derived from hESCs on Day 11+28 cultured in NKDM supplemented with DMSO, SR-1, or TCDD were harvested as single-cell suspensions. Cells were washed with DPBS, filtered, and stained with the following antibodies (all anti-human): CD56-BV421, CD94-PerCP-Cy5.5, CD117-PECy7, and LFA-1 (CD11a/CD18)-APC-R700 in sterile FACS Buffer (DPBS+2% FBS and 0.1% sodium azide) for 30 minutes at 4° C. Cells were washed with FACS buffer and cells were counterstained with Sytox Blue (ThermoFisher Scientific) immediately prior to sorting. Live NKP, cNK, and ILC3 populations were sorted directly into FACS tubes containing NKDM basal media using a FACSAria II (BD Biosciences) cell sorter. Cells were immediately centrifuged, washed once with PBS, and processed from total RNA isolation as described above.

[3] = test system: non-human primate iPSCs; settings: Gori et al. Blood 2012; cited from earlier work
[4] = Day 11+28, non-adherent fraction, n=3

## CC(C)n1cnc2c(NCCc3ccc(O)cc3)nc(-c3csc4ccccc34)nc21 [SR-1, StemReginin-1]
[1]
  percentage of cells in G0/G1 phase (EdU−PIlow): 43.7%±1.82
  percentage of cells in S-phase (EdU+PI+): 38.2%±1.00
[2]; Day 11+28
  change in CD94−CD117+ population compared to DMSO: significant reduction
[2]; [4]
  NKP (CD94+CD117+) cells, total percentage: 16.13±0.58%
  cNK cells (CD94+CD117−), total percentage: 37.0±2.92%
[3]
  kinetics or quantity of CD34+ or CD34+CD31+ cells: no differences
  phenotypic CD34+CD45+ cells: increase
  total number of colony-forming units (CFUs): did not enhance

## Clc1cc2c(cc1Cl)Oc1cc(Cl)c(Cl)cc1O2 [TCDD, 2,3,7,8-tetrachlorodibenzo-p-dioxin]
[1]
  percentage of cells in G0/G1 phase (EdU−PIlow): 25.8±0.34%
  percentage of cells in S-phase (EdU+PI+): 38.2%±1.03
[2]; Day 11+28
  shift of NKP population compared to DMSO: significantly shifted hESC-derived hematopoietic cells away from NKPs
[2]; Day 11+28, n=3
  percentage of CD94−CD117+ cells absent for LFA1 (ILC3): 69.4±4.57%
[2]; [4]
  CD94−CD117+ cells, total percentage: 28.5±4.42%
